# Source: patent US20240216392A1, “METHODS OF TREAMENT” (Arena Pharmaceuticals, Inc., priority 2022, published 2024)
# Like-named read-outs stand apart in the source and are kept apart here.
# How the values were obtained:
# plasma protein = test: clinical; conditions: human, oral
# [1] = Phase 1 multiple-dose study, plasma PK; assay type: in vivo, human; conditions: for half-life / Tmax / Cmax / AUC: both sexes, human, plasma, oral; for AUC: read-out: Plasma AUCtau, geometric mean (geometric CV %)
# Protocol: Subjects were enrolled to 1 of 2 dosage regimens. Subject enrollment was stratified by sex to ensure approximate sex balance in each cohort.
# (§1) Morning doses were administered following a standard light breakfast (e.g., milk and cereal, toast, and fruit) on all days. TID dosing (three times a day) was approximately 8 hours apart. Subjects fasted from midnight onwards, until the morning breakfast each day. There was no fluid restriction during the study, but subjects should not have consumed excessive amounts of fluid on any day.
# The Phase 1, open-label, multiple-dose study of Example 1 was conducted for Cohorts 1-3, 4A, and 4B.
# as §1, with “hours apart, and BID dosing (two times a day) was 12 hours” for “hours”, “were” for “should”, “to consume” for “have consumed”
compound,measurement,setting,value
"C[C@H]1CN2CCNCc3ccc(C(=O)NCC(F)F)c1c32 [Compound 1, (R)—N-(2,2-difluoroethyl)-7-methyl-1,2,3,4,6,7-hexahydro-[1,4]diazepino[6,7,1-hi]indole-8-carboxamide]",fraction unbound at 11 day,"plasma protein; 6 mg, Day 11, Cohort 1 (6 mg TID)",0.969
same,fraction unbound at 11 day,"plasma protein; 12 mg, Day 11, Cohort 2 (12 mg TID)",0.968
same,fraction unbound at 11 day,"plasma protein; 12 mg, Day 11, Cohort 3 (12 mg BID)",0.93
same,fraction unbound at 11 day,"plasma protein; 15 mg, Day 11, Cohort 4A (15 mg BID)",0.913
same,fraction unbound at 11 day,"plasma protein; 18 mg, Day 11, Cohort 4B (18 mg BID)",0.926
same,"average plasma concentrations over the dosing interval, comparability",[1]; Cohort 2 (12 mg TID) vs Cohort 4B (18 mg BID),~28%
same,"Plasma Cavg, geometric mean (geometric CV %)","[1]; Day 8, Cohort 1 (6 mg TID)",9.947 (2.6843) ng/mL
same,"Plasma Ctrough, geometric mean (geometric CV %)","[1]; Day 8, Cohort 1 (6 mg TID)",5.150 (1.6616) ng/mL
same,"Plasma Cavg, geometric mean (geometric CV %)","[1]; Day 8, Cohort 2 (12 mg TID)",26.19 (14.697) ng/mL
same,"Plasma Ctrough, geometric mean (geometric CV %)","[1]; Day 8, Cohort 2 (12 mg TID)",14.96 (9.9859) ng/mL
same,"Plasma Cavg, geometric mean (geometric CV %)","[1]; Day 8, Cohort 3 (12 mg BID)",14.42 (6.4875) ng/mL
same,"Plasma Ctrough, geometric mean (geometric CV %)","[1]; Day 8, Cohort 3 (12 mg BID)",4.892 (2.8780) ng/mL
same,"Plasma Cavg, geometric mean (geometric CV %)","[1]; Day 8, Cohort 4A (15 mg BID)",16.64 (4.4047) ng/mL
same,"Plasma Ctrough, geometric mean (geometric CV %)","[1]; Day 8, Cohort 4A (15 mg BID)",5.557 (2.3832) ng/mL
same,"Plasma Cavg, geometric mean (geometric CV %)","[1]; Day 8, Cohort 4B (18 mg BID)",20.62 (8.3690) ng/mL
same,"Plasma Ctrough, geometric mean (geometric CV %)","[1]; Day 8, Cohort 4B (18 mg BID)",7.427 (3.4830) ng/mL
same,"Plasma Cavg, geometric mean (geometric CV %)","[1]; Day 9, Cohort 1 (6 mg TID)",11.03 (3.3822) ng/mL
same,"Plasma Ctrough, geometric mean (geometric CV %)","[1]; Day 9, Cohort 1 (6 mg TID)",5.181 (1.9717) ng/mL
same,"Plasma Cavg, geometric mean (geometric CV %)","[1]; Day 9, Cohort 2 (12 mg TID)",27.22 (17.047) ng/mL
same,"Plasma Ctrough, geometric mean (geometric CV %)","[1]; Day 9, Cohort 2 (12 mg TID)",14.74 (13.800) ng/mL
same,"Plasma Cavg, geometric mean (geometric CV %)","[1]; Day 9, Cohort 3 (12 mg BID)",14.85 (6.1228) ng/mL
same,"Plasma Ctrough, geometric mean (geometric CV %)","[1]; Day 9, Cohort 3 (12 mg BID)",4.864 (2.7031) ng/mL
same,"Plasma Cavg, geometric mean (geometric CV %)","[1]; Day 9, Cohort 4A (15 mg BID)",17.84 (4.6403) ng/mL
same,"Plasma Ctrough, geometric mean (geometric CV %)","[1]; Day 9, Cohort 4A (15 mg BID)",6.497 (2.3570) ng/mL
same,"Plasma Cavg, geometric mean (geometric CV %)","[1]; Day 9, Cohort 4B (18 mg BID)",22.23 (10.604) ng/mL
same,"Plasma Ctrough, geometric mean (geometric CV %)","[1]; Day 9, Cohort 4B (18 mg BID)",7.066 (4.3229) ng/mL
same,"Plasma Cavg, geometric mean (geometric CV %)","[1]; Day 10, Cohort 1 (6 mg TID)",10.71 (2.8291) ng/mL
same,"Plasma Ctrough, geometric mean (geometric CV %)","[1]; Day 10, Cohort 1 (6 mg TID)",5.730 (1.7982) ng/mL
same,"Plasma Cavg, geometric mean (geometric CV %)","[1]; Day 10, Cohort 2 (12 mg TID)",27.73 (18.586) ng/mL
same,"Plasma Ctrough, geometric mean (geometric CV %)","[1]; Day 10, Cohort 2 (12 mg TID)",14.30 (11.743) ng/mL
same,"Plasma Cavg, geometric mean (geometric CV %)","[1]; Day 10, Cohort 3 (12 mg BID)",14.14 (6.2142) ng/mL
same,"Plasma Ctrough, geometric mean (geometric CV %)","[1]; Day 10, Cohort 3 (12 mg BID)",3.951 (2.4984) ng/mL
same,"Plasma Cavg, geometric mean (geometric CV %)","[1]; Day 10, Cohort 4A (15 mg BID)",16.70 (5.0410) ng/mL
same,"Plasma Ctrough, geometric mean (geometric CV %)","[1]; Day 10, Cohort 4A (15 mg BID)",4.372 ng/mL
same,"Plasma Cavg, geometric mean (geometric CV %)","[1]; Day 10, Cohort 4B (18 mg BID)",19.64 (6.8876) ng/mL
same,"Plasma Ctrough, geometric mean (geometric CV %)","[1]; Day 10, Cohort 4B (18 mg BID)",5.185 (2.4429) ng/mL
same,half-life,"[1]; 3 mg, Day 1, single 3 mg dose, Cohort 1, read-out: apparent terminal half-life (converted)",3.1 h
same,Tmax,"[1]; 3 mg, Day 1, single 3 mg dose, Cohort 1, read-out: plasma Tmax, median",1 h
same,Cmax,"[1]; 3 mg, Day 1, single 3 mg dose, Cohort 1, read-out: plasma geometric mean Cmax",4.7 ng/mL
same,half-life,"[1]; 6 mg, Day 1, single 6 mg dose, Cohorts 2, 3, 4A, 4B, read-out: apparent terminal half-life (converted)",3.1 to 3.3 h
same,Tmax,"[1]; 6 mg, Day 1, single 6 mg dose, Cohorts 2, 3, 4A, 4B, read-out: plasma Tmax, median",0.98 to 1.14 h
same,Cmax,"[1]; 6 mg, Day 1, single 6 mg dose, Cohorts 2, 3, 4A, 4B, read-out: plasma geometric mean Cmax",7.8 to 12.4 ng/mL
same,AUC,"[1]; 6 mg, Day 8, Cohort 1 (6 mg TID)",77.1 ng·h/mL
same,Cmax,"[1]; 6 mg, Day 8, Cohort 1 (6 mg TID), read-out: Plasma Cmax, geometric mean (geometric CV %)",16.6 ng/mL
same,half-life,"[1]; 6 mg, Day 8, Cohort 1 (6 mg TID), read-out: Plasma T1/2, mean (SD) (converted)",4.49 h
same,Tmax,"[1]; 6 mg, Day 8, Cohort 1 (6 mg TID), read-out: Plasma Tmax, median (minimum, maximum)",1.54 h
same,AUC,"[1]; 6 mg, Day 9, Cohort 1 (6 mg TID)",84.9 ng·h/mL
same,Cmax,"[1]; 6 mg, Day 9, Cohort 1 (6 mg TID), read-out: Plasma Cmax, geometric mean (geometric CV %)",18.4 ng/mL
same,half-life,"[1]; 6 mg, Day 9, Cohort 1 (6 mg TID), read-out: Plasma T1/2, mean (SD) (converted)",3.85 h
same,Tmax,"[1]; 6 mg, Day 9, Cohort 1 (6 mg TID), read-out: Plasma Tmax, median (minimum, maximum)",0.94 h
same,AUC,"[1]; 6 mg, Day 10, Cohort 1 (6 mg TID)",82.6 ng·h/mL
same,Cmax,"[1]; 6 mg, Day 10, Cohort 1 (6 mg TID), read-out: Plasma Cmax, geometric mean (geometric CV %)",16.5 ng/mL
same,half-life,"[1]; 6 mg, Day 10, Cohort 1 (6 mg TID), read-out: Plasma T1/2, mean (SD) (converted)",4.63 h
